Among the data in ChEMBL document CHEMBL1147371, “Les Chimanines, Nouvelles Quinoleines Substituees en 2, Isolees d'Une Plante Bolivienne Antiparasitaire: Galipea longiflora” (1993) are IC90 values, retold here.

In brackets after ≈: the same amount, converted by molar mass.

For test [1], the system named is Trypanosoma cruzi. In words: Antitrypanosomal activity against Trypanosoma cruzi Tulahuen. It is filed as functional.
Test [2] deals with Leishmania braziliensis. The test can be described thus: Antileishmanial activity against Leishmania braziliensis 2903. It is filed as functional.

One may read the IC90 as the concentration needed for an effect of 90%. Lower therefore signals greater potency. As to `CCCCCc1ccc2ccccc2n1`, the IC90 in test [1] and in test [2] was 100 µg/mL (≈ 502 µM) in each case.
Turning to `c1ccc2nc(CCc3ccc4c(c3)OCO4)ccc2c1`, the IC90 in test [1] and in test [2] was 100 µg/mL (≈ 361 µM) throughout.
Take `COc1cc(-c2ccccc2)nc2ccccc12`: the results for the IC90 in test [1] and in test [2] were 100 µg/mL (≈ 425 µM) and 50 µg/mL (≈ 213 µM), respectively.
In the same order, the values of `CCCc1ccc2ccccc2n1` are 50 µg/mL (≈ 292 µM) and 50 µg/mL (≈ 292 µM).
Consider `CCCCCc1cc(OC)c2ccccc2n1`, for which the IC90 in test [1] and in test [2] was 100 µg/mL (≈ 436 µM) throughout.
Take `COc1ccc(CCc2ccc3ccccc3n2)cc1OC`: the IC90 in test [1] and in test [2] was 100 µg/mL (≈ 341 µM) each time.
For `C[C@H]1O[C@@H]1c1ccc2ccccc2n1` (relative stereo) [CHIMANINE D], the IC90 in test [1] amounted to 50 µg/mL (≈ 270 µM); in test [2] it was 25 µg/mL (≈ 135 µM).
In the same order, the values of `c1ccc(-c2ccc3ccccc3n2)cc1` [2-PHENYLQUINOLINE] are 100 µg/mL (≈ 487 µM) and 100 µg/mL (≈ 487 µM).
Regarding `O=C(Cn1ccnc1[N+](=O)[O-])NCc1ccccc1` [BENZNIDAZOLE], it took 50 µg/mL (≈ 192 µM) to reach the 90% level in test [1] (IC90).
In the case of `CCCc1cc(OC)c2ccccc2n1` [CHIMANINE A], the IC90 in test [1] and in test [2] was 100 µg/mL (≈ 497 µM) each time.
On to `C/C=C/c1ccc2ccccc2n1` [CHIMANINE B], for which the IC90 in test [1] and in test [2] was 25 µg/mL (≈ 148 µM) throughout.
Regarding `COc1cc(CCc2ccc3c(c2)OCO3)nc2ccccc12` [CUSPARINE], the IC90 in test [1] and in test [2] was 100 µg/mL (≈ 325 µM) throughout.
On to `CC1CS(=O)(=O)CCN1/N=C/c1ccc([N+](=O)[O-])o1` (configuration not stated) [NIFURTIMOX], for which the IC90 in test [1] stood at 25 µg/mL (≈ 87 µM).
In turn, `N=C(N)c1ccc(OCCCCCOc2ccc(C(=N)N)cc2)cc1` [PENTAMIDINE] showed an IC90 in test [2] of 1 µg/mL (≈ 2.94 µM).
`COc1ccc2c(OC)c3ccoc3nc2c1OC` [SKIMMIANINE]: the IC90 in test [1] and in test [2] was 100 µg/mL (≈ 386 µM) in each case.
